Structures can show the parent of a compound that is named as a salt.
What was measured:
[1] = system: thrombocyte aggregation in platelet-rich plasma; assay: Antithrombotic effect: collagen-induced thrombocyte aggregation in platelet-rich plasma (Born and Cross); assay type: cell-based; details: human platelet-rich plasma, 10 minutes preincubation at 37° C., read-out: Inhibition of platelet aggregation EC50
Method: 2. Antithrombotic Effect Method: The thrombocyte aggregation was measured in platelet-rich plasma from healthy test subjects using the Born and Cross method (J. Physiol. 170: 397 (1964)). In order to inhibit coaggulation the blood was mixed with 3.14% sodium citrate in a ratio by volume of 1:10. Collagen-induced aggregation: The decrease in the optical density of the platelet suspension was measured photometrically and recorded after the addition of the aggregation-initiating substance. The speed of aggregation was concluded from the angle of inclination of the density curve. The point on the curve at which there was maximum transmittance was used to calculate the optical density. The quantity of collagen used was as little as possible but sufficient to give an irreversible reaction curve. Standard commercial collagen produced by Hormonchemie of Munich was used. Before the addition of collagen the plasma was incubated with the substance for 10 minutes at 37° C. From the measurements obtained, an EC50 was determined graphically, relating to a 50% change in the optical density in terms of inhibiting aggregation.

Human Thrombocytes = assay: Fibrinogen Binding to Human Thrombocytes (I125-fibrinogen, gel-filtered platelets); details: inhibition of I125-fibrinogen binding to gel-filtered human platelets, ADP, 20 minutes, ambient temperature; read-out: Fibrinogen Binding test IC50
Method: 1. Fibrinogen Binding to Human Thrombocytes Blood obtained by puncture of an antecubital vein was anticoagulated with trisodium citrate (final concentration: 13 mM) and centrifuged for 10 minutes at 170 *g. The supernatant platelet-rich plasma was placed on a Sepharose 2B column (Pharmacia) and eluted with a solution of 90 mM common salt, 14 mM trisodium citrate, 5 mM glucose and 50 mM tris(hydroxymethyl)aminomethane, adjusted to pH 7.4. The gel-filtered platelets (GFP) appearing in front of the plasma proteins were used for the binding tests. 50 μl of a 60 mM calcium chloride solution, 50 μl of a 0.6 mM adenosine diphosphate solution, 100 μl of substance solution or solvent and 50 μl of fibrinogen solution (containing 3 μg I125-fibrinogen) were added to 750 μl of GFP and incubated for 20 minutes at ambient temperature. The non-specific binding was measured in the presence of 3 mg/ml of cold fibrinogen. 900 μl of the incubate were carefully pipetted onto 250 μl of silicon oil (AP 38: AR 20, 1:2 v/v, Wacker Chemie) in Eppendorf vessels and centrifuged for 2 minutes at 10,000 *g. The aqueous supernatant and some of the oil were removed, the tip of the vessel with the platelet pellet was cut off and the quantity of bound fibrinogen was measured in a gamma-counter. The concentration of substance which inhibited fibrinogen binding by 50% was calculated from a series of concentrations and given as the IC50.

EC50 [1] [µM] | IC50 (Human Thrombocytes) [µM] | SMILES
1.5 | 0.045 | N=C(N)c1ccc(-c2ccc(N3CCN(CCC(=O)O)C3=O)cc2)cc1 [1(1), 1-(4'-amidino-4-biphenylyl)-3-(2-carboxy-ethyl)-imidazolidin-2-one]
0.32 | 0.096 | N=C(N)c1ccc(-c2ccc(N3CC(=O)N(CCC(=O)O)C3=O)cc2)cc1 [1(2), 1-(4'-amidino-4-biphenylyl)-3-(2-carboxy-ethyl)-imidazolidin-2,4-dione]
1.7 | 0.19 | N=C(N)c1ccc(-c2ccc(-n3ccn(CCC(=O)O)c3=O)cc2)cc1 [1(3), 1-(4'-amidino-4-biphenylyl)-3-(2-carboxy-ethyl)-3H-imidazol-2-one]
> 100 | 3.9 | N=C(N)c1ccc(-c2ccc(N3CCCN(CCC(=O)O)C3=O)cc2)cc1 [1(4), 1-(4'-amidino-4-biphenylyl)-3-(2-carboxy-ethyl)-3,4,5,6-tetrahydro-1H-pyrimidin-2-one]
32 | 6.1 | N=C(N)c1ccc(-c2ccc(N3CCCN(CC(=O)O)C3=O)cc2)cc1 [1(5), 1-(4'-amidino-4-biphenylyl)-3-carboxymethyl-3,4,5,6-tetrahydro-1H-pyrimidin-2-one]
0.07 | 0.017 | N=C(N)c1ccc(N2CCN(c3ccc(CCC(=O)O)cc3)C2=O)cc1 [1(6), 1-(4-amidino-phenyl)-3-[4-(2-carboxy-ethyl)-phenyl]-imidazolidin-2-one]
10 | 2.4 | N=C(N)c1ccc(N2CCCN(c3ccc(CCC(=O)O)cc3)C2=O)cc1 [1(7), 1-(4-amidino-phenyl)-3-[4-(2-carboxy-ethyl)-phenyl]-3,4,5,6-tetrahydro-1H-pyrimidin-2-one]
0.62 | 0.031 | N=C(N)c1ccc(-c2ccc(N3CCN(CCC(=O)O)S3(=O)=O)cc2)cc1 [1(21), 2-(4'-amidino-4-biphenylyl)-5-(2-carboxy-ethyl)-3,4-dihydro-2H,5H-1,2,5-thiadiazol-1,1-dioxide]
1.1 | 0.47 | N=C(N)c1ccc(N2CCC(N3CCN(CCC(=O)O)C3=O)CC2)cc1 [1(24), 1-[1-(4-amidino-phenyl)-4-piperidinyl]-3-(2-carboxy-ethyl)-imidazolidin-2-one]
0.39 | 0.052 | N=C(N)c1ccc(-c2ccc(N3CCN(CCC(=O)O)C3=O)nn2)cc1 [1(28), 1-[6-(4-amidino-phenyl)-3-pyridazinyl]-3-(2-carboxy-ethyl)-imidazolidin-2-one]
0.1 | 0.037 | Cc1cc(C(=N)N)ccc1N1CCN(c2ccc(CCC(=O)O)cc2)C1=O [1(36), 1-(4-amidino-2-methyl-phenyl)-3-[4-(2-carboxy-ethyl)-phenyl]-imidazolidin-2-one]
0.04 | 0.011 | N=C(N)c1ccc(N2CCN(C3CCC(CCC(=O)O)CC3)C2=O)cc1 (stereo not shown) [1(46), 1-(4-amidino-phenyl)-3-[4-(2-carboxy-ethyl)cyclohexyl]-imidazolidin-2-one]
1.1 | 0.21 | N=C(N)c1ccc(N2CCN(c3ccc(SCC(=O)O)cc3)C2=O)cc1 [1(48), 1-(4-amidino-phenyl)-3-(4-carboxymethylthiophenyl)-imidazolidin-2-one]
0.14 | 0.026 | N=C(N)c1ccc(N2CCN(c3ccc([S+]([O-])CC(=O)O)cc3)C2=O)cc1 (stereo not shown) [1(49), 1-(4-amidino-phenyl)-3-(4-carboxymethylsulphinylphenyl)-imidazolidin-2-one]
0.29 | 0.045 | N=C(N)c1ccc(N2CCN(c3ccc(S(=O)(=O)CC(=O)O)cc3)C2=O)cc1 [1(50), 1-(4-amidino-phenyl)-3-(4-carboxymethylsulphonylphenyl)-imidazolidin-2-one]
13 | 3.6 | CC(C)(CC(=O)O)c1ccc(N2CCN(c3ccc(C(=N)N)cc3)C2=O)cc1 [1(51), 1-(4-amidino-phenyl)-3-[4-(3-carboxy-2-methyl-2-propyl)-phenyl]-imidazolidin-2-one]
60 | 0.86 | N=C(N)c1ccc(N2CCN(CCc3ccc(C(=O)O)cc3)C2=O)cc1 [1(55), 1-(4-amidino-phenyl)-3-[2-(4-carboxyphenyl)-ethyl]-imidazolidin-2-one]

EC50 [1] [µM] | IC50 (Human Thrombocytes) [µM] | SMILES
0.35 | 0.15 | NCc1ccc(N2CCN(c3ccc(CCC(=O)O)cc3)C2=O)cc1 [1(59)]
0.04 | 0.013 | N=C(N)c1ccc(N2CC(=O)N(c3ccc(CCC(=O)O)cc3)C2=O)cc1 [1(62), 1-(4-amidino-phenyl)-3-[4-(2-carboxy-ethyl)-phenyl]-imidazolidin-2,4-dione]
0.06 | 0.03 | N=C(N)c1ccc(-n2ccn(-c3ccc(CCC(=O)O)cc3)c2=O)cc1 [1(67), 1-(4-amidino-phenyl)-3-[4-(2-carboxy-ethyl)-phenyl]-3H-imidazol-2-one]
8 | 4.9 | N=C(N)c1ccc(N2CCN(CCCCC(=O)O)C2=O)cc1 [1(77), -(4-amidino-phenyl)-3-(4-carboxy-butyl)-imidazolidin-2-one]
29 | 17 | N=C(N)c1ccc(N2CCN(CCNCC(=O)O)C2=O)cc1 [1(82), 1-(4-amidino-phenyl)-3-(2-carboxymethylaminoethyl)-imidazolidin-2-one]
0.4 | 0.31 | N=C(N)c1ccc(-c2cn(-c3ccc(CCC(=O)O)cc3)c(=O)n2-c2ccccc2)cc1 [1(94), 4-(4-amidino-phenyl)-1-[4-(2-carboxy-ethyl)-phenyl]-3-phenyl-3H-imidazol-2-one hydrochloride]
5.4 | 0.23 | N=C(N)c1ccc(-c2ccc(-c3cn(CCC(=O)O)c(=O)[nH]3)cc2)cc1 [1(117), 4-(4'-amidino-4-biphenylyl)-1-(2-carboxy-ethyl)-3H-imidazol-2-one hydrochloride]
0.28 | – | Cc1nn(-c2ccc(CCC(=O)O)cc2)c(=O)n1-c1ccc(C(=N)N)cc1 [1(137), 4-(4-amidino-phenyl)-2-[4-(2-carboxy-ethyl)-phenyl]-5-methyl-4H-1,2,4-triazol-3-one]
0.6 | – | Cc1cn(-c2ccc(CCC(=O)O)cc2)c(=O)n1-c1ccc(C(=N)N)cc1 [1(144), 3-(4-amidino-phenyl)-1-[4-(2-carboxy-ethyl)-phenyl]-4-methyl-3H-imidazol-2-one]
0.28 | – | COC(=O)CSc1ccc(N2CCN(c3ccc(C(=N)N)cc3)C2=O)cc1 [2(45), 1-(4-amidino-phenyl)-3-(4-methoxycarbonyl-methylthio-phenyl)-imidazolidin-2-one]
0.63 | – | COC(=O)CCc1ccc(-n2nc(C)n(-c3ccc(C(=N)N)cc3)c2=O)cc1 [2(117), 4-(4-amidino-phenyl)-2-[4-(2-methoxycarbonyl-ethyl)-phenyl]-5-methyl-4H-1,2,4-triazol-3-one hydrochloride]
1.2 | – | COC(=O)CCc1ccc(-n2cc(C)n(-c3ccc(C(=N)N)cc3)c2=O)cc1 [2(122), 3-(4-amidino-phenyl)-1-[4-(2-methoxycarbonyl-ethyl)-phenyl]-4-methyl-3H-imidazol-2-one hydrochloride-hydrate]
0.13 | – | COC(=O)CCc1ccc(-n2ncn(-c3ccc(C(=N)N)cc3)c2=O)cc1 [2(124), 4-(amidino-phenyl)-2-[4-(2-methoxycarbonyl-ethyl)-phenyl]-4H-1,2,4-triazol-3-one hydrochloride]
– | 5.7 | COC(=O)CCc1ccc(-n2cnn(-c3ccc(C(N)=NC(=O)OC)cc3)c2=O)cc1 [5(11), 2-(4-methoxycarbonylamidino-phenyl)-3-[4-(2-methoxycarbonyl-ethyl)-phenyl]-4H-1,2,4-triazol-3-one]
– | 3.7 | COC(=O)CCC1CCC(N2CCN(c3ccc(C(=N)NC(=O)OC)cc3)C2=O)CC1 (stereo not shown) [5(12), 1-(4-methoxycarbonylamidino-phenyl)-3-[4-(2-methoxycarbonyl-ethyl)-cyclohexyl]-imidazolidin-2-one]
0.21 | – | Cc1nn(-c2ccc(C(=N)N)cc2)c(=O)n1-c1ccc(CCC(=O)OC(C)C)cc1 [11(11), 2-(4-amidino-phenyl)-4-[4-(2-isopropyloxycarbonyl-ethyl)-phenyl]-5-methyl-4H-1,2,4-triazol-3-one hydrochloride]
0.24 | – | COC(=O)CS(=O)(=O)c1ccc(N2CCN(c3ccc(C(=N)N)cc3)C2=O)cc1 [Example 18, 1-(4-Amidino-phenyl)-3-(methoxycarbonylmethylsulphonyl-phenyl)-imidazolidin-2-one]

Source: patent US5276049A, “Cyclic urea derivatives, pharmaceutical compositions containing these compounds and methods of using the same” (Dr. Karl Thomae GmbH, priority 1991, dated 1994)
